Data set [1] concerns Wnt pathway. The experiment in a line: Cellular assay for Wnt pathway activity, LS174T-shl-fLuc clone 5 (LS174T-L5) luciferase reporter assay. The class given is cell-based. As to conditions: Homo sapiens; LS174T TCF luciferase reporter cells, 24 hours incubation. In a few lines: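 LS174T human colon cancer cells stably carrying a 16×TCF/LEF-driven short-half-life firefly luciferase reporter were treated with compounds at 30 μM to 1 nM for 24 hours. Luciferase luminescence normalized to vehicle control; IC50 from curve fitting.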
In general terms: A reporter such as luciferase makes a cellular process visible.

The nature of data set [2]: CLint (intrinsic clearance) assay, liver microsomal incubation. The class given is in vitro ADME, human. As to conditions: for microsomal CLint at 0.8 μM: liver microsomes, pH 7.4, human hepatic microsomes, 0.5 mg/mL protein, class symbols. In a few lines:
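Human liver microsomes (0.5 mg/mL protein) in 0.1 M potassium phosphate pH 7.4 with 1 mM MgCl2 were incubated at 37 °C with NADPH and compound (diluted to 0.8 μM), with no-cofactor controls. Samples were acetonitrile-quenched at 0–30 min. CLint (μL/min/mg protein) = k·1000/protein concentration, from the LC-MS/MS peak-area decline slope.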
(Liver microsomes are vesicles of endoplasmic reticulum, rich in cytochrome P450 enzymes.)

For data set [3], the system named is Wnt pathway. As to conditions: see Table A on page 93 of WO 2010/041054; cited from earlier work.

This is an account of results in patent US9834541B2, “2-aminopyridine compounds” (Merck Patent GmbH, priority 2012, dated 2017).

A value given as a limit tells only on which side of the number the result lay.

`O=C1NCCC12CCN(c1c(Cl)cncc1-c1ccccc1)CC2` [Compound E60, 8-(3-Chloro-5-phenyl-pyridin-4-yl)-2,8-diaza-spiro[4.5]decan-1-one, reference compound]: in data set [1], the IC50 turned out to be 230 nM. Moreover, the microsomal CLint at 0.8 μM in data set [2] is no less than 150 µL/min/mg. In addition, the “human hepatic microsomal intrinsic clearance (CLint), in words” value in data set [2] (statement in the related-art section) is given as “high”. Also, the “inhibitory activity, in words” value in data set [3] was “promising”.
With `Nc1ncc(-c2ccc(-c3cnn(CCO)c3)cc2)c(N2CCC3(CC2)CNC(=O)O3)c1Cl` [Compound 34, 8-(2-Amino-3-chloro-5-{4-[1-(2-hydroxy-ethyl)-1H-pyrazol-4-yl]-phenyl}-pyridin-4-yl)-1-oxa-3,8-diaza-spiro[4.5] decan-2-one], it took 370 nM to reach half-maximal inhibition in data set [1] (IC50). Further, the intrinsic metabolic clearance (microsomal CLint) at 0.8 μM in data set [2] lay within 10 to 50 µL/min/mg.
For the molecule `CN1c2ccc(-c3cnc(N)c(Cl)c3N3CC[C@@H](C#N)[C@H](O)C3)cc2CS1(=O)=O` [Compound 66, (3S,4S)-2′-Amino-3′-chloro-3-hydroxy-5′-(1-methyl-2,2-dioxo-2,3-dihydro-1H-2I6-benzo[c]isothiazol-5-yl)-3,4,5,6-tetrahydro-2H-[1,4′] bipyridinyl-4-carbonitrile], the IC50 in data set [1] came to 403 nM. Also, the microsomal CLint at 0.8 μM in data set [2] is 10 to 50 µL/min/mg.
Taken in the same sequence, the figures for `Cn1cc(-c2ccc(-c3cnc(N)c(Cl)c3N3CCC4(CC3)NCCNC4=O)cc2)cn1` [Compound 40, 9-(2-Amino-3-chloro-5-(4-(1-methyl-1H-pyrazol-4-yl)phenyl)pyridin-4-yl)-1,4,9-triazaspiro[5.5]undecan-5-one] were 100 nM and 10 to 50 µL/min/mg.
Molecule `Cn1ncc2cc(-c3cnc(N)c(Cl)c3N3CCC4(CC3)C(=O)Nc3ccccc34)ccc21` [Compound 31, 1′-(2-Amino-3-chloro-5-(1-methyl-1H-indazol-5-yl)pyridin-4-yl)spiro[indoline-3,4′-piperidin]-2-one] yielded an IC50 in data set [1] of 4 nM. The microsomal CLint at 0.8 μM in data set [2] lay within 50 to 100 µL/min/mg.
Taken in the same sequence, the figures for `Nc1ncc(-c2ccc3c(c2)CCC(=O)N3)c(N2CCC3(CCNC3=O)CC2)c1Cl` [Compound 19, 6-[6-Amino-5-chloro-4-(1-oxo-2,8-diaza-spiro[4.5]dec-8-yl)-pyridin-3-yl]-3,4-dihydro-1H-quinolin-2-one] were 75 nM and 10 to 50 µL/min/mg.
In data set [1], `Cn1cc(-c2ccc(-c3cnc(N)c(C(F)(F)F)c3N3CCC4(CCNC4=O)CC3)cc2)cn1` [Compound 43, 8-{2-Amino-5-[4-(1-methyl-1H-pyrazol-4-yl)-phenyl]-3-trifluoromethyl-pyridin-4-yl}-2,8-diaza-spiro[4.5] decan-1-one] displayed an IC50 of 46 nM. Also, the microsomal CLint at 0.8 μM in data set [2] was in the range of 10 to 50 µL/min/mg.
For the molecule `Nc1ncc(-c2ccc(N3CCOCC3)cc2)c(N2CCC3(CCNC3=O)CC2)c1Cl` [Compound 18, 8-[2-Amino-3-chloro-5-(4-morpholin-4-yl-phenyl)-pyridin-4-yl]-2,8-diaza-spiro[4.5] decan-1-one], the IC50 in data set [1] came out at 120 nM. Besides, the microsomal CLint at 0.8 μM in data set [2] lay within 50 to 100 µL/min/mg.
`CN1c2ccc(-c3cnc(N)c(Cl)c3N3CCC4(CC3)CNC(=O)O4)cc2CS1(=O)=O` [Compound 4, 8-[2-Amino-3-chloro-5-(1-methyl-2,2-dioxo-2,3-dihydro-1H-2I6-benzo[c]isothiazol-5-yl)-pyridin-4-yl]-1-oxa-3,8-diaza-spiro[4.5] decan-2-one] yielded an IC50 in data set [1] of 38 nM. The microsomal CLint at 0.8 μM in data set [2] was less than 10 µL/min/mg.
For `Cn1ncc2ccc(-c3cnc(N)c(Cl)c3N3CCC4(CCNC4=O)CC3)cc21` [Compound 23, 8-[2-Amino-3-chloro-5-(1-methyl-1H-indazol-6-yl)-pyridin-4-yl]-2,8-diaza-spiro[4.5] decan-1-one], the IC50 in data set [1] was determined as 21 nM. Also, the microsomal CLint at 0.8 μM in data set [2] was in the range of 10 to 50 µL/min/mg.
For `Cn1ncc2cc(-c3cnc(N)c(Cl)c3N3CCC4(CC3)CNC(=O)O4)ccc21` [Compound 21, 8-[2-Amino-3-chloro-5-(1-methyl-1H-indazol-5-yl)-pyridin-4-yl]-1-oxa-3,8-diaza-spiro[4.5] decan-2-one] the same measures were 110 nM and 10 to 50 µL/min/mg.
As for `Cn1ncc2cc(-c3cnc(N)c(Cl)c3N3CCC4(CCNC4=O)CC3)ccc21` [Compound 25, 8-(2-Amino-3-chloro-5-(1-methyl-1H-indazol-5-yl)pyridin-4-yl)-2,8-diazaspiro[4.5]decan-1-one], the IC50 in data set [1] was 34 nM. Besides, the microsomal CLint at 0.8 μM in data set [2] was in the range of 50 to 100 µL/min/mg.

By IC50 is commonly meant the concentration that inhibits the measured activity by half. Read a high IC50 as a need for much substance. For orientation: microsomal CLint means the capacity of the preparation to metabolise the compound, expressed as a volume cleared per time.
